Laboratory results reported in patent US20220340597A1, “HEXAHYDRO-1H-PYRAZINO[1,2-A]PYRAZINE COMPOUNDS FOR THE TREATMENT OF AUTOIMMUNE DISEASE” (Hoffmann-La Roche Inc., priority 2019, published 2022).

Each compound was assayed against T1, human TLR7 (Homo sapiens, UniProt Q9NYK1) (assay: HEK293-Blue-hTLR-7 cells assay). Settings: HEK293-Blue-hTLR7 cells, R848 stimulation, 20 hrs, SEAP reporter; read-out: HEK/hTLR7 IC50.
T1 construct: host or cells: HEK293 (HEK-Blue hTLR7)
T1 sequence (Q9NYK1 27-1049): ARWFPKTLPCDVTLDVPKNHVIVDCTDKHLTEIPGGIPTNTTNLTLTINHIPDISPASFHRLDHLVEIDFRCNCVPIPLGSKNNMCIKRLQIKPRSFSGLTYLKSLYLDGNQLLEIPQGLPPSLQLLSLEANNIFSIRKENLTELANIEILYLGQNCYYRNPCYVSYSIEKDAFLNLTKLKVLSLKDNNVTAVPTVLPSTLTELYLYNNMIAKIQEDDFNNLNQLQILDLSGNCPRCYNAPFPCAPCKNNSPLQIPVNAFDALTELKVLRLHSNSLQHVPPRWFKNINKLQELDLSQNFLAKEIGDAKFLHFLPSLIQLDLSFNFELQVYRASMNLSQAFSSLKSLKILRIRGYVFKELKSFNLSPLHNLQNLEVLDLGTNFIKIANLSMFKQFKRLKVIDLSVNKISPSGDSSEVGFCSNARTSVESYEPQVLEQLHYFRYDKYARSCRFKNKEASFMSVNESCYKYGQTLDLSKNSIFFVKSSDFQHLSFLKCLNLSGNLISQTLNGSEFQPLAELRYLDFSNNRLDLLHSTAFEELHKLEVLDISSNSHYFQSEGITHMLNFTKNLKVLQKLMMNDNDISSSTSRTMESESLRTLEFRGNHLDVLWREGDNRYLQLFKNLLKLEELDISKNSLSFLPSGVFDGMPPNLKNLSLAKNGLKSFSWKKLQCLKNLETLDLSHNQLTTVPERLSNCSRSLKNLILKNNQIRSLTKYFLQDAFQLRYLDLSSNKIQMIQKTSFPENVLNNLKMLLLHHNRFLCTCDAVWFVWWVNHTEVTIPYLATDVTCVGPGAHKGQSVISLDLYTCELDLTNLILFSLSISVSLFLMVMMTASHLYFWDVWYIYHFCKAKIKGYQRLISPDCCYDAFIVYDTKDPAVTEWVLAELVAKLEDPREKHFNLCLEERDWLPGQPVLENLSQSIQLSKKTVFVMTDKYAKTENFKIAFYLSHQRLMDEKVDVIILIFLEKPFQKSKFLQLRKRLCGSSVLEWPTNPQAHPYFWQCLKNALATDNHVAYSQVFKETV
Type: cell-based

| IC50 [nM] | SMILES |
| --- | --- |
| 17 | [2H]c1ccc2c(N3C[C@@H]4CN(Cc5cnc(N6CCNCC6)cc5C)CCN4[C@H](C)C3)ccc(C#N)c2n1 [Example 87, 5-[(4R,9aS)-4-methyl-8-[(4-methyl-6-piperazin-1-yl-3-pyridyl)methyl]-3,4,6,7,9,9a-hexahydro-1H-pyrazino[1,2-a]pyrazin-2-yl]-2-deuterio-quinoline-8-carbonitrile] |
| 40 | [2H]c1ccc2c(N3C[C@@H]4CN(Cc5nc(N6CCNCC6)ccc5C)CCN4[C@H](C)C3)ccc(C#N)c2n1 [Example 88, 5-[(4R,9aS)-4-methyl-8-[(3-methyl-6-piperazin-1-yl-2-pyridyl)methyl]-3,4,6,7,9,9a-hexahydro-1H-pyrazino[1,2-a]pyrazin-2-yl]-2-deuterio-quinoline-8-carbonitrile] |
| 28 | [2H]c1ccc2c(N3C[C@@H]4CN(CCc5ccnc(N6C[C@@H](N)[C@@H](F)C6)c5)CCN4[C@H](C)C3)ccc(C#N)c2n1 [Example 89, 5-[(4R,9aS)-8-[2-[2-[(3R,4S)-3-amino-4-fluoro-pyrrolidin-1-yl]-4-pyridyl]ethyl]-4-methyl-3,4,6,7,9,9a-hexahydro-1H-pyrazino[1,2-a]pyrazin-2-yl]-2-deuterio-quinoline-8-carbonitrile] |
| 6 | [2H]c1ccc2c(N3C[C@@H]4CN(Cc5ccc(N6C[C@@H]7C[C@H]6CN7)nc5C)CCN4[C@H](C)C3)ccc(C#N)c2n1 [Example 92, 5-[(4R,9aS)-8-[[6-[(1S,4S)-2,5-diazabicyclo[2.2.1]heptan-2-yl]-2-methyl-3-pyridyl]methyl]-4-methyl-3,4,6,7,9,9a-hexahydro-1H-pyrazino[1,2-a]pyrazin-2-yl]-2-deuterio-quinoline-8-carbonitrile] |
| 10 | Cc1cc(N2CCNCC2)cnc1N1CCN2[C@@H](C1)CN(c1cc(=O)n(C)c3ncccc13)C[C@H]2C [Example 93, 4-[(4R,9aR)-4-methyl-8-(3-methyl-5-piperazin-1-yl-2-pyridyl)-3,4,6,7,9,9a-hexahydro-1H-pyrazino[1,2-a]pyrazin-2-yl]-1-methyl-1,8-naphthyridin-2-one] |
| 25 | [2H]c1ccc2c(N3C[C@@H]4CN(Cc5cnc(N6C[C@@H]7C[C@H]6CN7)cc5C)CCN4[C@H](C)C3)ccc(C#N)c2n1 [Example 94, 5-[(4R,9aS)-8-[[6-[(1S,4S)-2,5-diazabicyclo[2.2.1]heptan-2-yl]-4-methyl-3-pyridyl]methyl]-4-methyl-3,4,6,7,9,9a-hexahydro-1H-pyrazino[1,2-a]pyrazin-2-yl]-2-deuterio-quinoline-8-carbonitrile] |
| 2 | [2H]c1ccc2c(N3C[C@@H]4CN(c5ncc(N6C[C@@H]7C[C@H]6CN7)cc5C)CCN4[C@H](C)C3)ccc(C#N)c2n1 [Example 95, 5-[(4R,9aR)-8-[5-[(1S,4S)-2,5-diazabicyclo[2.2.1]heptan-2-yl]-3-methyl-2-pyridyl]-4-methyl-3,4,6,7,9,9a-hexahydro-1H-pyrazino[1,2-a]pyrazin-2-yl]-2-deuterio-quinoline-8-carbonitrile] |
| 2 | [2H]c1ccc2c(N3C[C@@H]4CN(c5ncc(N6C[C@@H](N)[C@@H](OC)C6)cc5C)CCN4[C@H](C)C3)ccc(C#N)c2n1 [Example 96, 5-[(4R,9aR)-8-[5-[(3R,4S)-3-amino-4-methoxy-pyrrolidin-1-yl]-3-methyl-2-pyridyl]-4-methyl-3,4,6,7,9,9a-hexahydro-1H-pyrazino[1,2-a]pyrazin-2-yl]-2-deuterio-quinoline-8-carbonitrile] |
| 2 | [2H]c1ccc2c(N3C[C@@H]4CN(c5ncc(N6CC[C@@](C)(N)C6)cc5C)CCN4[C@H](C)C3)ccc(C#N)c2n1 [Example 97, 5-[(4R,9aR)-8-[5-[(3R)-3-amino-3-methyl-pyrrolidin-1-yl]-3-methyl-2-pyridyl]-4-methyl-3,4,6,7,9,9a-hexahydro-1H-pyrazino[1,2-a]pyrazin-2-yl]-2-deuterio-quinoline-8-carbonitrile] |

Second part, the compound before the results:

| SMILES | IC50 [nM] |
| --- | --- |
| C[C@@H]1CN(c2ccc(C#N)c3ncccc23)C[C@@H]2CN(Cc3ccc4c(c3)CNCC4)CCN21 (relative stereo) [Example 1] | 17 |
| C[C@@H]1CN(c2ccc(C#N)c3ncccc23)C[C@@H]2CN(Cc3ccnc(N4CCNCC4)c3)CCN21 (relative stereo) [Example 3] | 20 |
| [2H]c1ccc2c(N3C[C@@H]4CN(Cc5ccc(N6CC7(CN(C)C7)C6)nc5C)CCN4[C@H](C)C3)ccc(C#N)c2n1 [Example 80, 5-[(4R,9aS)-4-methyl-8-[[2-methyl-6-(6-methyl-2,6-diazaspiro[3.3]heptan-2-yl)-3-pyridyl]methyl]-3,4,6,7,9,9a-hexahydro-1H-pyrazino[1,2-a]pyrazin-2-yl]-2-deuterio-quinoline-8-carbonitrile] | 23 |
| [2H]c1ccc2c(N3C[C@@H]4CN(Cc5ccc(N6CC[C@@](C)(N)C6)nc5C)CCN4[C@H](C)C3)ccc(C#N)c2n1 [Example 81, 5-[(4R,9aS)-8-[[6-[(3R)-3-amino-3-methyl-pyrrolidin-1-yl]-2-methyl-3-pyridyl]methyl]-4-methyl-3,4,6,7,9,9a-hexahydro-1H-pyrazino[1,2-a]pyrazin-2-yl]-2-deuterio-quinoline-8-carbonitrile] | 16 |
| [2H]c1ccc2c(N3C[C@@H]4CN(Cc5ccc(N[C@H]6CNC[C@H]6F)nc5C)CCN4[C@H](C)C3)ccc(C#N)c2n1 [Example 82, 5-[(4R,9aS)-8-[[6-[[(3S,4R)-4-fluoropyrrolidin-3-yl]amino]-2-methyl-3-pyridyl]methyl]-4-methyl-3,4,6,7,9,9a-hexahydro-JH-pyrazino[1,2-a]pyrazin-2-yl]-2-deuterio-quinoline-8-carbonitrile] | 12 |
| [2H]c1ccc2c(N3C[C@@H]4CN(Cc5ccc(N6CC7CNCC(C6)O7)nc5C)CCN4[C@H](C)C3)ccc(C#N)c2n1 [Example 83, 5-[(4R,9aS)-4-methyl-8-[[2-methyl-6-(9-oxa-3,7-diazabicyclo[3.3.1]nonan-3-yl)-3-pyridyl]methyl]-3,4,6,7,9,9a-hexahydro-1H-pyrazino[1,2-a]pyrazin-2-yl]-2-deuterio-quinoline-8-carbonitrile] | 17 |
| [2H]c1ccc2c(N3C[C@@H]4CN(CCc5ccc(N6CC[C@@](C)(N)C6)nc5)CCN4[C@H](C)C3)ccc(C#N)c2n1 [Example 84, 5-[(4R,9aS)-8-[2-[6-[(3R)-3-amino-3-methyl-pyrrolidin-1-yl]-3-pyridyl]ethyl]-4-methyl-3,4,6,7,9,9a-hexahydro-1H-pyrazino[1,2-a]pyrazin-2-yl]-2-deuterio-quinoline-8-carbonitrile] | 16 |
| Cc1nc(N2CCNC[C@@H]2C)ccc1CN1CCN2[C@@H](C1)CN(c1ccc(C#N)c3ncccc13)C[C@H]2C [Example 85, 5-[(4R,9aS)-4-methyl-8-[[2-methyl-6-[(2S)-2-methylpiperazin-1-yl]-3-pyridyl]methyl]-3,4,6,7,9,9a-hexahydro-1H-pyrazino[1,2-a]pyrazin-2-yl]quinoline-8-carbonitrile] | 19 |
| Cc1nc(N2CCN[C@H](C)C2)ccc1CN1CCN2[C@@H](C1)CN(c1ccc(C#N)c3ncccc13)C[C@H]2C [Example 86, 5-[(4R,9aS)-4-methyl-8-[[2-methyl-6-[(3R)-3-methylpiperazin-1-yl]-3-pyridyl]methyl]-3,4,6,7,9,9a-hexahydro-1H-pyrazino[1,2-a]pyrazin-2-yl]quinoline-8-carbonitrile] | 15 |
| [2H]c1ccc2c(N3C[C@@H]4CN(Cc5ccc(N6CC7CC(C6)N7)nc5C)CCN4[C@H](C)C3)ccc(C#N)c2n1 [Example 90, 5-[(4R,9aS)-8-[[6-(3,6-diazabicyclo[3.1.1]heptan-3-yl)-2-methyl-3-pyridyl]methyl]-4-methyl-3,4,6,7,9,9a-hexahydro-1H-pyrazino[1,2-a]pyrazin-2-yl]-2-deuterio-quinoline-8-carbonitrile] | 13 |
| [2H]c1ccc2c(N3C[C@@H]4CN(Cc5ccc(N6CC7CCC(C6)N7)nc5C)CCN4[C@H](C)C3)ccc(C#N)c2n1 [Example 91, 5-[(4R,9aS)-8-[[6-(3,8-diazabicyclo[3.2.1]octan-3-yl)-2-methyl-3-pyridyl]methyl]-4-methyl-3,4,6,7,9,9a-hexahydro-1H-pyrazino[1,2-a]pyrazin-2-yl]-2-deuterio-quinoline-8-carbonitrile] | 15 |
